According to patent publication US20040242538A1, “Method to improve complexation efficacy and produce high-energy cylodextrincomplexes” (priority 2001, published 2004):
In brackets after ≈: the same amount, converted by molar mass.

Key:
[1] = Stability of the drug in complexes during heating in the vacuum oven (HPLC); assay type: physicochemical; conditions: complexes heated at 90° C. for several days
Experimental: All solutions were lyophilized, then the obtained complex was sieved through a 300 μm sieve and heated in a vacuum oven at 60-90° C. for several days, depending on the drug being investigated.
The amount of drug per gram sample was determined on a high performance liquid chromatographic (HPLC) component system, consisting of ConstaMetric 3200 solvent delivery system operated at 1.5 ml/min, a SpectroMonitor 3200 UV/VIS variable-wavelength detector, a Merck-Hitachi AS-2000A autosampler, Merck Hitachi D-2500 Chromato-Integrator and a Phenomex ODS 5 μm (150×4.6 mm) column.
Selected Basic drug A complexes were analysed after heating in the vacuum oven at 90° C. for several days.

[2] = physchem; conditions: pH 7.4, aqueous buffer, thermodynamic from solid
Experimental: To investigate this special property of the complexes, 50 mg of complex containing the basic drug was dissolved in 25 ml of phosphate buffer 0.1 M, pH 7.4. 100 μl samples were taken from this solution and measured for 1-96 hours depending on the complex being investigated. […] Solid drug particles with and without cyclodextrin were also weighed and placed in the buffer to show the difference in solubility between samples of the drug alone, drug and cyclodextrin in a standard mixture, and drug in complex with cyclodextrin.
The solid complexes were heated in a vacuum oven for 4 days at 88° C. and 0.13×10^2 Pa. Each complex contained about 0.2 equivalents of acetic acid. A 50 mg sample of each complex was dissolved in 25 ml of the buffer. […] 12 mg of solid Basic drug A particles were also dissolved in 50 ml of the buffer with or without 38 mg of HPβCD to show the effect of complexing.

stability during heating in the vacuum oven [1]: stable during heating in the vacuum oven
solubility [2]: 34 µg/mL (≈ 75.8 µM)
Structure (SMILES): Cc1ccc(N2CCN(C)CC2)c2c1CC[C@@H](NC(=O)c1ccc(N3CCOCC3)cc1)C2 [Basic drug A, (R)-N-[5-methyl-8-(4-methylpiperazin-1-yl)-1,2,3,4-tetrahydro-2-naphthyl]-4-morpholinobenzamide]
